Literature values as cited in patent US10265268B2, “External composition for screen foamers” (POLA PHARMA INC., priority 2014, dated 2019).

Conditions: surfactants from NIKKOL / suitable examples

Molecule	HLB
CCCCCCCCCCCCCCCCCC(=O)OCC(O)CO (centres unmarked) [Glyceryl monostearate]	4.0
Polyethylene glycol monostearate (40 E.O.)	17.5
Polyoxyethylene (10) cetyl ether	13.5
Polyoxyethylene (20) behenyl ether	16.5
Polyoxyethylene (20) polyoxypropylene (8) cetyl ether	12.5
